Legend:
HEP3B (human hepatoma) = test: viability assay (Table 2); type: cell-based
Description: (§1) For viability assays cells were seeded in 96 well plates (MCF7 and 4T1: 6000, HL60: 120.000 cells/well) and incubated overnight. Compounds were dissolved in dimethyl sulfoxide (DMSO). Cells were treated with an increasing concentration of compounds having the general formula (I.) (156 nM-100 μM). Cell viability was determined after 72h incubation. Resazurin reagent (Sigma-Aldrich) was dissolved in PBS (pH 7.4) at 0.15 mg/ml concentration, sterile filtered (0.22 μm, Merck Millipore) and aliquoted at −20° C. Resazurin reagent (Sigma-Aldrich) was added at a final concentration of 25 μg/ml. After 2 hours incubation at 37° C. 5% CO2 fluorescence (530 nm excitation/580 nm emission) was recorded on a multimode microplate reader (Cytofluor4000, PerSeptive Biosytems). Viability was calculated with relation to untreated control cells and blank wells containing media without cells. IC50 values (50% inhibiting concentration) were calculated by GraphPad Prism® 5 (La Jolla, Calif., USA).
(§2) GBM2 (human glioblastoma), HeLa (human cervical carcinoma), MIA PaCa-2 (human pancreas carcinoma) and U87MG (human glioblastoma) cells were maintained in Dulbecco's Modified Eagle Medium (DMEM) 10% fetal calf serum (FCS, Gibco). A375 (human melanoma), A549 (human lung adenocarcinoma) and HEP3B (human hepatoma) cells were maintained in Dulbecco's Modified Eagle Medium/Nutrient Mixture F-12 (DMEM/F12) 10% FCS.
(§3) Media were supplemented with 2 mM GlutaMAX, and 100 U/mL penicillin, 100 μg/mL streptomycin (Life Technologies, Carlsbad, Calif., USA). Cell cultures were maintained at 37° C. in a humidified incubator in an atmosphere of 5% CO2 (Sanyo, Japan).
(§4) Viability assays were performed as described in Example 102.

[1] = system: U87MG (human glioblastoma); test: viability assay (Table 2); type: cell-based; details: U-87 MG, read-out: IC50 U87
Description: as §1, §2, §3, §4

[2] = system: HL60 human acute myeloid leukaemia cells in SCID immune-deficient mouse; test: leukaemia mouse model (FIG. 7); type: in vivo; details: 3 mg/kg intravenously, 10 occasions
Description: The effect on leukaemia was studied on SCID immune-deficient mouse model inoculated intravenously with HL60 human acute myeloid leukaemia cells (ATCC) (1 million cells/animal). Two groups were formed from randomly selected mice, with 9 animals in each group. Group1: control group, it was only administered a carrier (0.1 mL, 0.9% NaCl solution) intravenously; group 2: group treated with compound 60, it was administered 3 mg/kg of compound 60 in PEG100:Solutol:PBS (1:4:15 vol ratio), intravenously.
(§5) The treatments were performed from the third day, on five consecutive occasions per week, for 2 weeks, on a total of 10 occasions. As time went on, every day we determined the number of surviving animals and represented it in percentage per group as compared to the total initial number of animals (FIG. 7). It can be seen that the 3 mg/kg dose of compound 60 administered intravenously was effective, the treatment with compound 60 increased the LD50 (from day 26 to day 42) and the survival rate of the animals.

[3] = system: HeLa (human cervical carcinoma); test: viability assay (Table 2); type: cell-based
Description: as §1, §2, §3, §4

MOLT4 (human leukemia) = test: viability assay (Table 2); type: cell-based; details: MOLT-4
Description: as §1
(§6) HT168 (human melanoma), HT199 (human melanoma), HT29 (human colorectal adenocarcinoma), MOLT4 (human leukemia) and U937 (human lymphoma) cells were maintained in Roswell Park Memorial Institute 1640 medium (RPMI-1640) 10% FCS. SKOV-3 cells were maintained in Dulbecco's Modified Eagle Medium/McCoy's medium (DMEM/McCoy) 10% FCS.
as §3, §4

[4] = system: SKOV-3 cells (ovarian adenocarcinoma); test: viability assay (Table 2); type: cell-based; details: Homo sapiens, SK-OV-3
Description: as §1, §6, §3, §4

U937 (human lymphoma) = test: viability assay (Table 2); type: cell-based; details: U-937
Description: as §1, §6, §3, §4

[5] = system: 4T1 mouse cells inoculated into the mammary gland of BalbC mouse; test: mammary carcinoma mouse model (FIG. 6); type: in vivo; details: 3 mg/kg intravenously, every other day from day 16, 6 occasions, compared to vehicle
Description: The effect on mammary carcinoma was studied on BalbC mouse model inoculated subcutaneously into the mammary gland with 4T1 mouse cells (ATCC) (100,000 cells/animal). Two groups were formed from randomly selected mice, with 8 animals in both groups. Group 1: control group, it was only administered a carrier (0.1 mL, 0.9% NaCl solution) intravenously; group 2: group treated with compound 83, it was administered 3 mg/kg of compound 83 in PEG100:Solutol:PBS (1:4:15 vol ratio), intravenously after the tumor reached 300 mm^3 (day 16). The treatments were performed from the sixteenth day, every other day, for a total of 6 occasions. Starting from the 16th day on every day the size of the increasing tumours was determined in the case of each animal, and the group average was represented per group (FIG. 6). The standard deviation was determined in SEM. It can be seen that the treatment with compound 83 reduced the size of the increasing mammary tumour.

[6] = system: HTT199 human melanoma cells in SCID immune-deficient mouse; test: melanoma mouse model (FIG. 8); type: in vivo; details: 3 mg/kg intravenously, 10 occasions
Description: The effect on melanoma was studied on SCID immune-deficient mouse model inoculated in the spleen with HTT199 human melanoma cells (ATCC) (1 million cells/animal). Two groups were formed from randomly selected mice, with 10 animals in each group. Group 1: control group, it was only administered a carrier (0.1 mL, 0.9% NaCl solution) intravenously; group 2: group treated with compound 83, it was administered 3 mg/kg of compound 83 in PEG100:Solutol:PBS (1:4:15 vol ratio), intravenously.
as §5, with “8).” for “7).”, “83” for “60”, “33” for “26”, “38)” for “42)”

Structure (SMILES) | IC50 (HEP3B (human hepatoma)) [µM] | IC50 [1] [µM] | survival rate of the animals [2] | median survival time ([2]; control day 26) [days] | IC50 [3] [µM] | IC50 (MOLT4 (human leukemia)) [µM] | IC50 [4] [µM] | IC50 (U937 (human lymphoma)) [µM] | size of the increasing mammary tumour [5] | survival rate of the animals [6] | median survival time ([6]; control day 33) [days]
CC(C)(C)Nc1c(C(C)(C)C)[nH]c2c(C(=O)Nc3ccc(F)cc3)cnn12 [Example 60, 2-(Tert-butyl)-N-(4-fluorophenyl)-3-((tert-butyl-2-yl)amino)-1H-imidazo[1,2-b]pyrazole-7-carboxamide] | 0.25 | 0.25 | increased | 42 | – | – | – | – | – | – | –
CC(C)(C)Nc1c(C(C)(C)C)[nH]c2c(C(=O)Nc3ccc(N)cc3)cnn12 [Example 83, N-(4-Aminophenyl)-2-(tert-butyl)-3-(tert-butylamino)-1H-imidazo[1,2-b]pyrazole-7-carboxamide] | – | – | – | – | 0.1 | 0.15 | 0.15 | 0.25 | reduced | increased | 38
